Laboratory results as given in patent US20250320193A1, “OXOISOINDOLINYL SUBSTITUTED PIPERIDINEDIONE DERIVATIVE AND USE THEREOF” (GLUETACS THERAPEUTICS (SHANGHAI) CO., LTD., priority 2022, published 2025).

Legend:
[1] = biological target: human Cereblon WT GST-tagged protein (Homo sapiens (Human), UniProt Q96SW2); assay: CRBN-binding affinity, HTRF (CEREBLON BINDING kit, CISBIO); settings: HTRF inhibitory activity
Method in brief: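 Compounds were mixed with GST-tagged human Cereblon WT protein, then with Thalidomide-Red tracer and GST Eu antibody, and binding was read by HTRF. Inhibition rate was calculated from 620 nm emission relative to blank control wells (no protein) and solvent control wells.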

IKZF1 = IKZF1 (Homo sapiens (Human), UniProt Q13422+Q96SW2); assay: Western blot, substrate protein expression in hPBMC: IKZF1; type: cell-based; settings: hPBMC, compound 500 nM, 24 hours, Western blot
Method in brief: (§1)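 hPBMC, 1×10^6 cells/mL, 24 h compound exposure; RIPA lysis, BCA protein assay, SDS-PAGE, NC membrane immunoblot. Densitometry vs internal control → % protein remaining; degradation % = 100% − remaining; DC50 = conc. at 50% of DMSO band signal.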

IKZF3 = IKZF3 (Homo sapiens (Human), UniProt Q96SW2+Q9UKT9); assay: Western blot, substrate protein expression in hPBMC: IKZF3; type: cell-based; settings: hPBMC, compound 500 nM, 24 hours, Western blot
Method in brief: as §1

GSPT1 = GSPT1 (Homo sapiens (Human), UniProt P15170+Q96SW2); assay: Western blot, substrate protein expression in hPBMC: GSPT1; type: cell-based; settings: hPBMC, compound 500 nM, 24 hours, Western blot
Method in brief: as §1

Sequence of GSPT1 (P15170 whole entry): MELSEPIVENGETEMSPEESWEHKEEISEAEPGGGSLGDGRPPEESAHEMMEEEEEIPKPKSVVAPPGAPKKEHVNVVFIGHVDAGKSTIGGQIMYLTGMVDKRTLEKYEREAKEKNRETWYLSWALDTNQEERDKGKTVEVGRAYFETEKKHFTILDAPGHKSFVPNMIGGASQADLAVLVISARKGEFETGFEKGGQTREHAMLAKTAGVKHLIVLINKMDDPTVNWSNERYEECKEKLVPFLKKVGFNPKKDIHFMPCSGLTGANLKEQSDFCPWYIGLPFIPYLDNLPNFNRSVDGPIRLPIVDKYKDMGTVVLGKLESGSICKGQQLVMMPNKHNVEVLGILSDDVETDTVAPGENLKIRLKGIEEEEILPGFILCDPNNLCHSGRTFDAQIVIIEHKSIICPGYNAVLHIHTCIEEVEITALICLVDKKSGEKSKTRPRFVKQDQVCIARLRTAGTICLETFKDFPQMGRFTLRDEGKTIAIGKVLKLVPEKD
Sequence of GSPT1 (Q96SW2 whole entry): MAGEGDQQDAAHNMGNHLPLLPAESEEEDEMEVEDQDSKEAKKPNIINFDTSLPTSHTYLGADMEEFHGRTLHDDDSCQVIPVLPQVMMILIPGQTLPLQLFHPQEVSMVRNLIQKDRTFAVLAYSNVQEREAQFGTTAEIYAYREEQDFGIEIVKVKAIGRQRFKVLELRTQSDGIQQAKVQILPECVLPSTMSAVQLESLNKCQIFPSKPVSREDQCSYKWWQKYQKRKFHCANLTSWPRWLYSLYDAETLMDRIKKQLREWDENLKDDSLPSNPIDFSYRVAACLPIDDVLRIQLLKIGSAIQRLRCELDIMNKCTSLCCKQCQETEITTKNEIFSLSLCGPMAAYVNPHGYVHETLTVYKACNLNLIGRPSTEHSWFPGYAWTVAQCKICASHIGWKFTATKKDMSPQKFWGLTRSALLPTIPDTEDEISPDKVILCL
Sequence of GSPT1 (Q16531 whole entry partner): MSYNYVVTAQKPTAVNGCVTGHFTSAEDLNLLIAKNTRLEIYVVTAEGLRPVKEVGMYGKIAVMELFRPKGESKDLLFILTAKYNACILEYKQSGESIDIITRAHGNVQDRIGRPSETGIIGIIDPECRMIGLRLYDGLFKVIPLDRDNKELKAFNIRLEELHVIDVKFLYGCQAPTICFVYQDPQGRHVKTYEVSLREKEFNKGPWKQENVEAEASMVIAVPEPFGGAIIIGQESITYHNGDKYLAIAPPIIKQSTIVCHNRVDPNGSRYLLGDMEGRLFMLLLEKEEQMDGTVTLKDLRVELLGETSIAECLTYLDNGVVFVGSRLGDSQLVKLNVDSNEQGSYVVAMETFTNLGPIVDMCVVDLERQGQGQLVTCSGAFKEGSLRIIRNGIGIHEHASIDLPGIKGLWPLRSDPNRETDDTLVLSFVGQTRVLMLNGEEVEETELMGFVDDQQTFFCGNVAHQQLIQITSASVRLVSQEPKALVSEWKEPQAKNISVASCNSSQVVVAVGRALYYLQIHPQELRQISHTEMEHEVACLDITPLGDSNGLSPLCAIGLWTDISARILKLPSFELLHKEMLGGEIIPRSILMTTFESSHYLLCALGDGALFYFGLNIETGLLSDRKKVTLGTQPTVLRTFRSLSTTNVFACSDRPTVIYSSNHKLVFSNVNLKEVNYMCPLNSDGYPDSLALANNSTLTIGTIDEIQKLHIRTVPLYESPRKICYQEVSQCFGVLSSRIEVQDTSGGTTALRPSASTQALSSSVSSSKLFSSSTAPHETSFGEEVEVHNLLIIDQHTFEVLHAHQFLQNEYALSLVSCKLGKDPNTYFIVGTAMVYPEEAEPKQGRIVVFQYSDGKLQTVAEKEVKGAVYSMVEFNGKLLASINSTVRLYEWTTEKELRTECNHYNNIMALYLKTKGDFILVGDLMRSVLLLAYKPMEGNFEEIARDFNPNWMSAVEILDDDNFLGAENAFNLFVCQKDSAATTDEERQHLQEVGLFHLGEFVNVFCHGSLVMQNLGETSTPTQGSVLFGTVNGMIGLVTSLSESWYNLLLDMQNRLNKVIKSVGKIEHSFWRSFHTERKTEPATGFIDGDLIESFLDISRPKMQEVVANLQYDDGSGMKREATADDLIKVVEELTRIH
Sequence of IKZF3 (Q9UKT9 whole entry): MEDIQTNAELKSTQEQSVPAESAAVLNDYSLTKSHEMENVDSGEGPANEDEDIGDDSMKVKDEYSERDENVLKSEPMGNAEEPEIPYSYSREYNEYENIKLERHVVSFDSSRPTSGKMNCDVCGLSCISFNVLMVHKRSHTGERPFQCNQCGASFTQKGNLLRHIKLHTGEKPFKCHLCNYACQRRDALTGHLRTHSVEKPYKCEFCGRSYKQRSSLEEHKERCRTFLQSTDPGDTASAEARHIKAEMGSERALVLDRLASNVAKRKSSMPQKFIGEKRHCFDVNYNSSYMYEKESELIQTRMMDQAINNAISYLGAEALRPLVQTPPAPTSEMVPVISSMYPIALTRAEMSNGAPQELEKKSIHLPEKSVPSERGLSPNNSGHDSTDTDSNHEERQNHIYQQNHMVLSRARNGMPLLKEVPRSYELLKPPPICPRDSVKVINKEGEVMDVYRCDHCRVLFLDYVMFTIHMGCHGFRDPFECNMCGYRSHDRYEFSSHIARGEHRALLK
Sequence of IKZF3 (Q96SW2 whole entry): as the sequence (Q96SW2 whole entry) above
Sequence of IKZF3 (Q16531 whole entry partner): as the sequence (Q16531 whole entry partner) above
Sequence of human Cereblon WT GST-tagged protein (Q96SW2 whole entry): as the sequence (Q96SW2 whole entry) above
Sequence of IKZF1 (Q13422 whole entry): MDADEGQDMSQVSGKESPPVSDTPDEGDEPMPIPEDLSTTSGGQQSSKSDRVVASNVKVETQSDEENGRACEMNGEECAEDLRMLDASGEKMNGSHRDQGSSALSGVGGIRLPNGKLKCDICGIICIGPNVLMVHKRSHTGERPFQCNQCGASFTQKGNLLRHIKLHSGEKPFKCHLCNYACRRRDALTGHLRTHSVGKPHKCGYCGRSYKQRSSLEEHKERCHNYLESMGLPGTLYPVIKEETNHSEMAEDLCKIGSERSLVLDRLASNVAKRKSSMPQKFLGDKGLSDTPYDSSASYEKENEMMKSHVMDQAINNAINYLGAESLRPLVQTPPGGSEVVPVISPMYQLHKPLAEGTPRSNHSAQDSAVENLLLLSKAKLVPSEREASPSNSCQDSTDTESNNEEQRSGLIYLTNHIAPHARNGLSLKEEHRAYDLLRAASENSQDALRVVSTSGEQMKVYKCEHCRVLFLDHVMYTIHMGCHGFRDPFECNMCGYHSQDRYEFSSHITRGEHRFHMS
Sequence of IKZF1 (Q96SW2 whole entry): as the sequence (Q96SW2 whole entry) above
Sequence of IKZF1 (Q16531 whole entry partner): as the sequence (Q16531 whole entry partner) above

SMILES	IC50 [1]	substrate protein remaining % IKZF1 (IKZF1)	substrate protein remaining % IKZF3 (IKZF3)	substrate protein remaining % GSPT1 (GSPT1)
O=C1CCC(N2Cc3cc(C(=O)N4CC5CCC(C4)N5C(c4ccccc4)c4ccccc4)ccc3C2=O)C(=O)N1 (stereo not shown) [GT-05980, 3-(5-(8-benzhydryl-3,8-diazabicyclo[3.2.1]octane-3-carbonyl)-1-oxoisoindolin-2-yl)piperidine-2,6-dione]	500 to 1000 nM	A (A represents 0% ≤ substrate protein remaining % ≤ 50%)	B (B represents substrate protein remaining % > 50%)	A (A represents 0% ≤ substrate protein remaining % ≤ 50%)
O=C1CCC(N2Cc3cc(C(=O)N4CCN(C5c6ccccc6-c6ccccc65)CC4)ccc3C2=O)C(=O)N1 (stereo not shown) [GT-05986, 3-(5-(4-(9H-fluoren-9-yl)piperazine-1-carbonyl)-1-oxoisoindolin-2-yl)piperidine-2,6-dione]	< 500 nM	B (B represents substrate protein remaining % > 50%)	B (B represents substrate protein remaining % > 50%)	A (A represents 0% ≤ substrate protein remaining % ≤ 50%)
O=C1CCC(N2Cc3cc(C(=O)N4CC5(CCN(C(c6ccccc6)c6ccccc6)CC5)C4)ccc3C2=O)C(=O)N1 (stereo not shown) [GT-05988, 3-(5-(7-benzhydryl-2,7-diazaspiro[3.5]nonane-2-carbonyl)-1-oxoisoindolin-2-yl)piperidine-2,6-dione]	< 500 nM	B (B represents substrate protein remaining % > 50%)	B (B represents substrate protein remaining % > 50%)	A (A represents 0% ≤ substrate protein remaining % ≤ 50%)
O=C1CCC(N2Cc3c(CN4CCC5(CC4)CCN(C(c4ccccc4)c4ccccc4)CC5)cccc3C2=O)C(=O)N1 (stereo not shown) [GT-06027, 3-(4-((9-benzhydryl-3,9-diazaspiro[5.5]undecan-3-yl)methyl)-1-oxoisoindolin-2-yl)piperidine-2,6-dione]	1000 to 1900 nM	B (B represents substrate protein remaining % > 50%)	B (B represents substrate protein remaining % > 50%)	A (A represents 0% ≤ substrate protein remaining % ≤ 50%)
O=C1CCC(N2Cc3c(ccc(CN4CC5CN(C(c6ccccc6)c6ccccc6)CC5C4)c3F)C2=O)C(=O)N1 (stereo not shown) [GT-06044, 3-(5-((5-benzhydrylhexahydropyrrolo[3,4-c]pyrrol-2 (1H)-yl)methyl)-4-fluoro-1-oxoisoindolin-2-yl)piperidine-2,6-dione]	< 500 nM	B (B represents substrate protein remaining % > 50%)	A (A represents 0% ≤ substrate protein remaining % ≤ 50%)	A (A represents 0% ≤ substrate protein remaining % ≤ 50%)
O=C1CCC(N2Cc3cc(CN4CC5CN(C(c6ccccc6)c6ccccc6)CC5C4)cc(F)c3C2=O)C(=O)N1 (stereo not shown) [GT-06045, 3-(5-((5-benzhydrylhexahydropyrrolo[3,4-c]pyrrol-2 (1H)-yl)methyl)-7-fluoro-1-oxoisoindolin-2-yl)piperidine-2,6-dione]	< 500 nM	B (B represents substrate protein remaining % > 50%)	B (B represents substrate protein remaining % > 50%)	A (A represents 0% ≤ substrate protein remaining % ≤ 50%)
C[C@@H]1CN(C(c2ccccc2)c2ccccc2)CCN1Cc1cc2c(cc1F)C(=O)N(C1CCC(=O)NC1=O)C2 (stereo partly drawn) [GT-06046, 3-(5-(((R)-4-benzhydryl-2-methylpiperazin-1-yl)methyl)-6-fluoro-1-oxoisoindolin-2-yl)piperidine-2,6-dione]	500 to 1000 nM	B (B represents substrate protein remaining % > 50%)	B (B represents substrate protein remaining % > 50%)	A (A represents 0% ≤ substrate protein remaining % ≤ 50%)
O=C1CCC(N2Cc3cc(CN4CCN(C5c6cc(Cl)ccc6-c6ccc(Cl)cc65)CC4)ccc3C2=O)C(=O)N1 (stereo not shown) [GT-06048, 3-(5-((4-(2,7-dichloro-9H-fluoren-9-yl)piperazin-1-yl)methyl)-1-oxoisoindolin-2-yl)piperidine-2,6-dione]	< 500 nM	A (A represents 0% ≤ substrate protein remaining % ≤ 50%)	A (A represents 0% ≤ substrate protein remaining % ≤ 50%)	A (A represents 0% ≤ substrate protein remaining % ≤ 50%)
O=C1CCC(N2Cc3cc(CN4CC5CN(C(c6ccccc6)c6ccccc6)CC5C4)ccc3C2=O)C(=O)N1 (stereo not shown) [GT-06050, 3-(5-((5-benzhydrylhexahydropyrrolo[3,4-c]pyrrol-2 (1H)-yl)methyl)-1-oxoisoindolin-2-yl)piperidine-2,6-dione]	< 500 nM	B (B represents substrate protein remaining % > 50%)	B (B represents substrate protein remaining % > 50%)	A (A represents 0% ≤ substrate protein remaining % ≤ 50%)
O=C1CCC(N2Cc3c(CN4CC5CN(C(c6ccccc6)c6ccccc6)CC5C4)cccc3C2=O)C(=O)N1 (stereo not shown) [GT-06052, 3-(4-((5-benzhydrylhexahydropyrrolo[3,4-c]pyrrol-2 (1H)-yl)methyl)-1-oxoisoindolin-2-yl)piperidine-2,6-dione]	< 500 nM	B (B represents substrate protein remaining % > 50%)	B (B represents substrate protein remaining % > 50%)	A (A represents 0% ≤ substrate protein remaining % ≤ 50%)
CC1(C)CN(C(=O)c2ccc3c(c2)CN(C2CCC(=O)NC2=O)C3=O)CCN1C(c1ccccc1)c1ccccc1 (stereo not shown) [GT-06061, 3-(5-(4-benzhydryl-3,3-dimethylpiperazine-1-carbonyl)-1-oxoisoindolin-2-yl)piperidine-2,6-dione]	500 to 1000 nM	B (B represents substrate protein remaining % > 50%)	B (B represents substrate protein remaining % > 50%)	A (A represents 0% ≤ substrate protein remaining % ≤ 50%)
O=C1CCC(N2Cc3cc(C(=O)N4CCC5(CCN(C(c6ccccc6)c6ccccc6)CC5)C4)ccc3C2=O)C(=O)N1 (stereo not shown) [GT-06063, 3-(5-(8-benzhydryl-2,8-diazaspiro[4.5]decane-2-carbonyl)-1-oxoisoindolin-2-yl)piperidine-2,6-dione]	500 to 1000 nM	B (B represents substrate protein remaining % > 50%)	B (B represents substrate protein remaining % > 50%)	A (A represents 0% ≤ substrate protein remaining % ≤ 50%)
O=C1CCC(N2Cc3cc(C(=O)N4CCC5(CC4)CCN(C(c4ccccc4)c4ccccc4)CC5)ccc3C2=O)C(=O)N1 (stereo not shown) [GT-06065, 3-(5-(9-benzhydryl-3,9-diazaspiro[5.5]undecane-3-carbonyl)-1-oxoisoindolin-2-yl)piperidine-2,6-dione]	< 500 nM	B (B represents substrate protein remaining % > 50%)	B (B represents substrate protein remaining % > 50%)	A (A represents 0% ≤ substrate protein remaining % ≤ 50%)
